Assay results from ChEMBL document CHEMBL3272065 (J Med Chem, 1977).

Tests used:
[1] = Half life of the compound at pH 7.4 at 37 degC at 3.4 x 10' -3 M; assay type: physicochemical
[2] = Hydrolysis of the compound at pH 7.4 at 37 degC assessed as first-order rate coefficient at 3.4 x 10' -3 M; assay type: physicochemical; conditions: buffer, pH 7.4, 3400 µM

Compound: O=[N+]([O-])c1cc([N+](=O)[O-])c(NCCCSCCCl)c(S(=O)(=O)O)c1
- half-life at 3400 µM [1]: 5.83 min
- K [2]: 2 ×10⁻³ /s
